Results as given in patent publication US6987092B1, “Indigoid bisindole derivatives” (Faustus Forschungs Cie. Translational Cancer Research GmbH, priority 1999, dated 2006).
Structures can show the parent of a compound that is named as a salt.

Tests used:
[1] = test system: cells of the large-cell lung carcinoma of the tumor line LXFL-529L; test: Tumor cell growth inhibition, SRB-assay, LXFL-529L; format: cell-based; conditions: 50% growth inhibition, three days incubation in serum-containing medium
[2] = test system: cells of the mammary carcinoma cell line MCF-7; test: Tumor cell growth inhibition, SRB-assay, MCF-7; format: cell-based; conditions: 50% growth inhibition, three days incubation in serum-containing medium

CCOC(=O)CON=C1C(=C2C(=O)Nc3ccccc32)Nc2ccccc21 [Example 40, ethyl-2{O-[2′-(2-oxo-(2H3H)indol-3-ylidene)-(2′H3′H)indol-3′-ylidene]-aminooxy}-acetate]
IC50 [1]: 6 ± 0.4 µM | IC50 [2]: 10 ± 0.7 µM

O=C1Nc2ccccc2C1=C1Nc2ccccc2C1=NOCCOCCO [Example 33, 3-{3′-[iminooxy-O-(2-(2-hydroxy-ethoxy)-ethyl)]-(2′H3′H)indol-2′-ylidene}-(2H3H)indol-2-one]
IC50 [1]: 2 ± 0.4 µM | IC50 [2]: 2.5 ± 0.5 µM

CNC(=O)Cc1ccc2c(c1)C(=C1Nc3ccccc3C1=O)C(=O)N2 [Example 9, N-methyl-2-[3-(3′-oxo-(2′H3′H)indol-2′-ylidene)-(2H3H)indol-2-one-5-yl]-acetamide]
IC50 [1]: 11.5 ± 0.6 µM | IC50 [2]: 17 ± 1 µM

CN(C)C(=O)Cc1ccc2c(c1)C(=C1Nc3ccccc3C1=O)C(=O)N2 [Example 10, N,N-dimethyl-2-[3-(3′-oxo-(2′H3′H)indol-2′-ylidene)-(2H3H)indol-2-one-5-yl]-acetamide]
IC50 [1]: 16 ± 0.9 µM | IC50 [2]: 20 ± 1.3 µM

NCCNc1ccc2c(c1)C(=C1Nc3ccccc3C1=O)C(=O)N2 [Example 20, 5-(2-amino-ethyl)-amino-indirubin]
IC50 [1]: 4 ± 0.3 µM | IC50 [2]: 3.5 ± 0.4 µM

O=C(O)CCC(=O)Nc1ccc2c(c1)C(=C1Nc3ccccc3C1=O)C(=O)N2 [Example 17, [3-(3′-oxo-(2′H3′H)indol-2′-ylidene)-(2H3H)indol-2-one-5-yl]-succinamic acid]
IC50 [1]: 12.5 ± 0.7 µM | IC50 [2]: 14 ± 0.9 µM

3-{3′-[iminooxy-O-(2-D-galactopyranosylethyl)]-(2′H3′H)indol-2′-ylidene}-(2H3H)indol-2-one [Example 47]
IC50 [1]: 17 ± 1.2 µM | IC50 [2]: 9.5 ± 0.9 µM

3-{3′-[iminooxy-O-((N,N)-bis(hydroxyethyl)-4-amino-butyl)]-(2H3H)indol-2′-ylidene}-(2H3H)indol-2-one [Example 61]
IC50 [1]: 8 ± 0.3 µM | IC50 [2]: 12.4 ± 0.7 µM

O=C1Nc2ccc(S(=O)(=O)N3CCNCC3)cc2C1=C1Nc2ccccc2C1=O [Example 22, indirubin-5-sulfonic acid-(piperazin-1-yl-amide)]
IC50 [1]: 3 ± 0.5 µM | IC50 [2]: 2 ± 0.3 µM

CCOP(=O)(Cc1ccc2c(c1)C(=C1Nc3ccccc3C1=O)C(=O)N2)OCC [Example 14, diethyl-{[3-(3′-oxo-(2′H3′H)indol-2′-ylidene)-(2H3H)indol-2-one-5-yl]-methyl}-phosphonate]
IC50 [1]: 6.5 ± 1.2 µM | IC50 [2]: 6 ± 1.1 µM

NC(=O)CON=C1C(=C2C(=O)Nc3ccccc32)Nc2ccccc21 [Example 42, 2-{O-[2′-(2-oxo-(2H3H)indol-3-ylidene)-(2′H3′H)indol-3′-ylidene]-aminooxy}-acetamide]
IC50 [1]: 2 ± 0.3 µM | IC50 [2]: 6 ± 0.5 µM

O=C1Nc2ccc(NCCO)cc2C1=C1Nc2ccccc2C1=O [Example 21, 5-(2-hydroxy-ethyl)-amino-indirubin]
IC50 [1]: 3 ± 0.5 µM | IC50 [2]: 5 ± 0.6 µM

CC(C)(O)CON=C1C(=C2C(=O)Nc3ccccc32)Nc2ccccc21 [Example 34, 3-{3′-[iminooxy-O-((2-hydroxy-2-methyl)-propyl)]-(2′H3′H)indol-2′-ylidene}-(2H3H)indol-2-one]
IC50 [1]: 2 ± 0.5 µM | IC50 [2]: 2 ± 0.3 µM

O=C1Nc2ccccc2C1=C1Nc2ccccc2C1=NOCCN[C@H]1C(O)O[C@H](CO)[C@@H](O)[C@@H]1O (some centres unmarked) [Example 56, 3-{3′-[iminooxy-O-(N-(2-deoxy-glucose)-2-amino-ethyl)]-(2′H3′H)indol-2′-ylidene}-(2H3H)indol-2-one]
IC50 [1]: 12 ± 1.3 µM | IC50 [2]: 14 ± 1.2 µM

3-[3′-[iminooxy-O-(2-D-glucopyranosylethyl)]-(2H′3H′)indol-2′-ylidene]-5-methyl-(2H3H)indol-2-one [Example 68]
IC50 [1]: 17 ± 0.8 µM | IC50 [2]: 2.5 ± 0.8 µM

O=C(O)CCCON=C1C(=C2C(=O)Nc3ccccc32)Nc2ccccc21 [Example 37, 4-{O-[2′-(2-oxo-(2H3H)indol-3-ylidene)-(2′H3′H)indol-3′-ylidene]-aminooxy}-butyric Acid (Sodium Salt)]
IC50 [1]: 12 ± 1 µM | IC50 [2]: 14 ± 1.1 µM

3-{3′-[iminooxy-O-(3-D-glucopyranosylpropyl)]-(2′H3′H)indol-2′-ylidene}-(2H3H)indol-2-one [Example 45]
IC50 [1]: 19 ± 0.9 µM | IC50 [2]: 10.5 ± 0.6 µM

CN1CCN(CCON=C2C(=C3C(=O)Nc4ccccc43)Nc3ccccc32)CC1 [Example 65, 3-{3′-[iminooxy-O-(2-(4-methyl-piperazin-1-yl)-ethyl)]-(2′H3′H)indol-2′-ylidene}-(2H3H)indol-2-one]
IC50 [2]: 7.5 ± 0.8 µM

O=C1Nc2ccc(CP(=O)(O)O)cc2C1=C1Nc2ccccc2C1=O [Example 13, [3-(3′-oxo-(2′H3′H)indol-2′-ylidene)-(2H3H)indol-2-one-5-yl]-methyl-phosphonic Acid]
IC50 [1]: 8.5 ± 0.8 µM | IC50 [2]: 6.5 ± 1 µM

Cc1ccc2c(c1)C(=C1Nc3ccccc3C1=NOCCO)C(=O)N2 [Example 67, 3-[3′-[iminooxy-O-(2-hydroxy-ethyl)]-(2H′3H′)indol-2′-ylidene]-5-methyl-(2H3H)indol-2-one]
IC50 [1]: 1 ± 0.5 µM | IC50 [2]: 1.5 ± 0.6 µM

O=C(O)Cc1ccc2c(c1)C(=C1Nc3ccccc3C1=O)C(=O)N2 [Example 5, 5-(carboxymethyl)-indirubin]
IC50 [2]: 19.5 ± 1.4 µM

CC(C)c1ccc2c(c1)/C(=C1/Nc3ccccc3C1=O)C(=O)N2 [Example 3, 5-isopropyl-indirubin]
IC50 [1]: 4 ± 0.2 µM | IC50 [2]: 0.5 ± 0.2 µM

3-{3′-[iminooxy-O-(2-(2-amino-2-deoxy-D-galactopyranosyl)-ethyl)]-(2′H3′H)indol-2′-ylidene}(2H3H)indol-2-one [Example 54]
IC50 [1]: 16 ± 1.1 µM | IC50 [2]: 9 ± 0.9 µM

3-{3′-[iminooxy-O-(2-L-arabinopyranosylethyl)]-(2′H3′H)indol-2′-ylidene}-(2H3H)indol-2-one [Example 49]
IC50 [1]: 20.5 ± 1.4 µM | IC50 [2]: 5 ± 0.7 µM

indirubin-5-sulfonic acid-(morpholin-4-yl-amide) [Example 23]
IC50 [1]: 4.5 ± 0.8 µM | IC50 [2]: 3 ± 0.9 µM

CN(C)C(=O)CON=C1C(=C2C(=O)Nc3ccccc32)Nc2ccccc21 [Example 43, N,N-dimethyl-2{O-[2′-(2-oxo-(2H3H)indol-3-ylidene)-(2′H3′H)indol-3′-ylidene]-aminooxy}-acetamide]
IC50 [1]: 7 ± 1.1 µM | IC50 [2]: 9.2 ± 0.9 µM

CN(C)C(=O)ON=C1C(=C2C(=O)Nc3ccccc32)Nc2ccccc21 [Example 41, 3-{3′-[iminooxy-O-((N,N)-dimethyl-carbamoyl)]-(2′H3′H)indol-2′-ylidene}-(2H3H)indol-2-one]
IC50 [1]: 5 ± 0.6 µM | IC50 [2]: 7.5 ± 0.9 µM

O=C1Nc2ccccc2C1=C1Nc2ccccc2C1=NOCCN1CCOCC1 [Example 64, 3-{3′-[iminooxy-O-(2-(morpholin-4-yl)-ethyl)]-(2′H3′)indol-2′-ylidene}-(2H3H)indol-2-one]
IC50 [1]: 10 ± 0.6 µM | IC50 [2]: 9 ± 1.2 µM

O=C1Nc2ccccc2C1=C1Nc2ccccc2C1=NOCCNC[C@H](O)[C@@H](O)[C@H](O)[C@H](O)CO [Example 55, 3-{3′-[iminooxy-O-(N-(1-deoxy-glucitol)-2-amino-ethyl)]-(2′H3′H)indol-2′-ylidene}-(2H3H)indol-2-one]
IC50 [1]: 3 ± 0.6 µM | IC50 [2]: 3 ± 0.8 µM

O=C(O)CCCCON=C1C(=C2C(=O)Nc3ccccc32)Nc2ccccc21 [Example 38, 5{O-[2′-(2-oxo-(2H3H)indol-3-ylidene)-(2′H3′H)indol-3′-ylidene]-aminooxy}-pentanoic Acid (Sodium Salt)]
IC50 [1]: 14 ± 0.8 µM | IC50 [2]: 14 ± 0.7 µM

COC(=O)CNS(=O)(=O)c1ccc2c(c1)C(=C1Nc3ccccc3C1=O)C(=O)N2 [Example 24, methyl-2-{[3-(3′-oxo-(2′H3′H)indol-2′-ylidene)-(2H3H)indol-2-one-5-yl]-sulfonylamino}-acetate]
IC50 [1]: 16 ± 0.8 µM | IC50 [2]: 25 ± 0.9 µM

CC(=O)Nc1ccc2c(c1)C(=C1Nc3ccccc3C1=NO)C(=O)N2 [Example 29, 5-acetylamino-indirubin-3′-monooxime]
IC50 [1]: 4 ± 0.9 µM | IC50 [2]: 5 ± 0.5 µM

O=C1Nc2ccccc2C1=C1Nc2ccccc2C1=NOCCN[C@H]1C(O)O[C@H](CO)[C@H](O)[C@@H]1O (some centres unmarked) [Example 57, 3-{3′-[iminooxy-O-(N-(2-deoxy-galactose)-2-amino-ethyl)]-(2′H3′H)indol-2′-ylidene}-(2H3H)indol-2-one]
IC50 [1]: 23 ± 1.4 µM

O=C1Nc2ccccc2C1=C1Nc2ccccc2C1=NOCCN1CCNCC1 [Example 63, 3-{3′-[iminooxy-O-(2-(piperazin-1-yl)-ethyl)]-(2′H3′H)indol-2′-ylidene}-(2H3H)indol-2-one]
IC50 [1]: 8 ± 0.6 µM | IC50 [2]: 9.5 ± 0.8 µM

O=C(O)CCON=C1C(=C2C(=O)Nc3ccccc32)Nc2ccccc21 [Example 36, 3-{O-[2′-(2-oxo-(2H3H)indol-3-ylidene)-(2′H3′H)indol-3′-ylidene]-aminooxy}-propionic Acid (Sodium Salt)]
IC50 [2]: 16 ± 0.7 µM

O=C1Nc2ccccc2C1=C1Nc2ccccc2C1=NOCCNCCO [Example 59, 3-{3′-[iminooxy-O-(N-hydroxyethyl-2-amino-ethyl)]-(2′H3′H)indol-2′-ylidene}-(2H3H)indol-2-one]
IC50 [1]: 11.6 ± 0.8 µM | IC50 [2]: 13.6 ± 1.2 µM

CC(=O)Nc1ccc2c(c1)C(=C1Nc3ccccc3C1=O)C(=O)N2 [Example 16, 5-acetylamino-indirubin]
IC50 [1]: 10 ± 0.8 µM

3-{3′-[iminooxy-O-(O^4-α-D-glucopyranosyl-2-D-glucopyranosylethyl)]-(2′H3′H)indol-2′-ylidene}-(2H3H)indol-2-one [Example 46]
IC50 [1]: 24 ± 1.3 µM | IC50 [2]: 7 ± 0.9 µM

COC(=O)CNC(=O)Cc1ccc2c(c1)C(=C1Nc3ccccc3C1=O)C(=O)N2 [Example 12, methyl-2-{2-[3-(3′-oxo-(2′H3′H)indol-2′-ylidene)-(2H3H)indol-2-one-5-yl]-acetylamino}-acetate]
IC50 [1]: 8 ± 0.8 µM | IC50 [2]: 6.5 ± 1.2 µM

CN(C)CCON=C1C(=C2C(=O)Nc3ccccc32)Nc2ccccc21 [Example 58, 3-{3′-[iminooxy-O-((N,N)-dimethyl-2-amino-ethyl)]-(2′H3′H)indol-2′-ylidene}-(2H3H)indol-2-one]
IC50 [1]: 5 ± 0.9 µM | IC50 [2]: 6.5 ± 1.1 µM

NCC(=O)Nc1ccc2c(c1)C(=C1Nc3ccccc3C1=NO)C(=O)N2 [Example 30, 2-amino-N-[3-(3′-hydroxyimino-(2H3H)indol-2′-ylidene)-(2H3H)-indol-2-one-5-yl]-acetamide]
IC50 [1]: 6 ± 0.8 µM | IC50 [2]: 6 ± 0.7 µM
